Data: patent publication US20230172923A1, “METHODS OF TREATING CYTOKINE-RELATED ADVERSE EVENTS” (BRISTOL-MYERS SQUIBB COMPANY, priority 2020, published 2023)
“Also recorded” adds a separate entry of the source.

Key:
Type in all cases: cell-based, human
IL-6 [1] = test: CC-93269-induced IL-6 secretion, co-culture of PBMCs and H929 multiple myeloma cells (MSD); details: 1 nM Compound 1 pre-treatment overnight, washed out; two donors
Experimental: Fresh PBMCs were isolated from healthy volunteers, the percentage of CD3+ T-cells (total) was quantified by flow cytometry, and the PBMCs were treated with 1 nM Compound 1 (CC-92480) or control DMSO overnight. The next morning, target H929 cells were added to the wells at a ratio of 5:1, T-cells to target cells, followed by addition of CC-93269 at indicated concentrations. At 6-, 24- and 48-hours post-incubation, the cell culture was collected and levels of IL-6 in the supernatant were assessed using an MSD assay.
Fresh PBMCs were isolated from the blood (buffy coat) of human volunteers by Ficoll based cell separation. The percentage of CD3+ T-cells (total) in the PBMCs was quantified by flow cytometry. The isolated PBMCs were seeded in 12 well plates at a concentration of 1.5×10^6 cells/ml and treated with 1 nM Compound 1 (CC-92480) or control DMSO overnight (~17 hours). After overnight incubation, the cells were washed to remove CC-92480, before target H929 cells were added to the wells at a ratio of 5:1, T-cells to target cells. […]
The co-culture was then incubated with CC-93269 at various concentrations. At 6, 24 and 48 hours post-incubation, the cell culture media was collected from all samples, spun down at 300 g for 5 minutes to remove cells and the supernatant was subjected to cytokine analysis to quantify secreted levels of IL-6 using an MSD assay. […]

IL-6 [2] = test: LPS-induced IL-6 secretion from monocytes with nigericin (MSD); details: overnight 1 nM, 10 nM or 100 nM Compound 1; LPS 4 hours, then 5 µg/ml nigericin 1 hour
Experimental: Monocytes from healthy volunteers were seeded at a concentration of 1×10^6 cells/ml and treated with the indicated concentration of Compound 1 overnight. The next morning, the monocytes were incubated with the indicated concentration of LPS for 4 hours, and then stimulation with 5 ug/ml of nigericin for 1 hour, before IL-6 levels in the supernatant were assessed using an MSD assay.
Monocytes from two healthy human donors were isolated as in Example 1. Here isolated monocytes (1×10^6 cells/ml) were treated with various concentrations of Compound 1 (1 nM, 10 nM, or 100 nM), or control DMSO (0.001%), overnight (~17 hours) before stimulation with various concentrations of LPS.
After 4 hours, 5 µg/ml of nigericin was added to activate the inflammasome for 1 hour, supernatants were harvested, and MSD analysis was performed to quantify secreted IL-6.

IL-2 = test: CC-93269-induced IL-2 secretion, co-culture of PBMCs and K562-BCMA cells (MSD); details: Compound 1 pre-treatment; 24 hours
Experimental: Co-cultures of PBMCs, target K562-BCMA cells and CC-93269 were prepared as for FIG. 9. At 6-, 24- and 48-hours post-incubation, the cell culture media was collected and levels of TNF-alpha (FIG. 12A) and IL-2 (FIG. 12B) in the supernatant were assessed using an MSD assay. ULOQ = Upper limit of quantification.
Fresh PBMCs were isolated from the blood (buffy coat) of healthy human volunteers by Ficoll based cell separation. The percentage of CD3+ T-cells (total) in the PBMCs was quantified by flow cytometry. The isolated PBMCs were seeded in 12-well plates at a concentration of 1.5×10^6 cells/ml and treated with 1 nM Compound 1 (CC-92480), 1000 nM lenalidomide, 100 nM pomalidomide, 10 nM iberdomide, or control DMSO overnight (~17 hours).
After overnight incubation, target K562-BCMA cells (overexpress surface BCMA at a very high level) or control K562-MCB cells (no BCMA expression) were added to the wells at a ratio of 5:1, T-cells to target cells. K562-BCMA and K562-MCB are an isogenic pair that are derived from a chronic myelogenous leukemia (CML,) cell line. CC-93269 was added to the co-culture at various concentrations and incubated. CC-93269 is an anti-BCMA anti-CD3 bispecific T cell-engaging antibody and is also referred to herein as 42-TCBcv.

IL1-beta = test: CC-93269-induced IL1-beta secretion, co-culture of PBMCs and K562-BCMA cells (MSD)
Experimental: Co-cultures of PBMCs, target K562-BCMA cells and CC-93269 were prepared as for FIG. 9. At 6-, 24- and 48-hours post-incubation, the cell culture media was collected and levels of IL1-beta in the supernatant were assessed using an MSD assay (FIG. 13A). […] The circles indicate independent donors and the bars indicate median values; not all donors are shown because a data cut-off for the bottom ~10% of IL1-beta concentrations, below 100 pg/ml, was used to eliminate small changes that could skew the result and to increase confidence in results.
Fresh PBMCs were isolated from the blood (buffy coat) of healthy human volunteers by Ficoll based cell separation. The percentage of CD3+ T-cells (total) in the PBMCs was quantified by flow cytometry. The isolated PBMCs were seeded in 12 well plates at a concentration of 1.5×10^6 cells/ml and treated with 1 nM Compound 1 (CC-92480) or control DMSO overnight (~17 hours). After overnight incubation, target K562-BCMA cells were added to the wells at a ratio of 5:1, T-cells to target cells, followed by incubation with CC-93269 at various concentrations. […]
At 6, 24 and 48 hours post-incubation, the cell culture media was collected from all samples, spun down at 300 g for 5 minutes to remove cells and the supernatant was subjected to cytokine analysis to quantify secreted levels of IL1-beta using an MSD assay.

N#Cc1ccc(N2CCN(Cc3ccc(COc4cccc5c4CN(C4CCC(=O)NC4=O)C5=O)cc3)CC2)c(F)c1 (stereo not drawn) [Compound 1, 4-(4-(4-(((2-(2,6-dioxopiperidin-3-yl)-1-oxoisoindolin-4-yl)oxy)methyl)benzyl)piperazin-l-yl)-3-fluorobenzonitrile]
secretion of IL-6 associated with CC-93269 activity, PBMCs + multiple myeloma cells (H929) (IL-6 [1]): diminished/attenuated
LPS-induced IL-6 secretion from monocytes (IL-6 [2]): diminished
CC-93269-induced IL-2 secretion from PBMCs with K562 target cells (IL-2): potentiates
secretion of IL1-beta associated with CC-93269 activity, PBMCs + K562-BCMA (IL1-beta; 1 nM Compound 1 pre-treatment overnight): diminished/attenuated; also recorded: suppressed
median reduction in IL1-beta levels relative to DMSO control (IL1-beta; Compound 1 pre-treatment, 10 ng/ml CC-93269, 24 hours, PBMCs from 15 healthy donors): ten-fold
